{"source": "patent US20230226089A1", "about": "“METHODS AND COMPOSITIONS FOR TREATING DISEASES ASSOCIATED WITH SENESCENCE” (Atropos Therapeutics, Inc., priority 2019, published 2023)", "key": {"[1]": {"system": "HGPS fibroblasts", "experiment": "Senescent cells (ATRX foci vs nuclear area) in progeria patient fibroblasts", "assay_type": "cell-based, human", "description": "Normal diploid fibroblasts (NDF) and fibroblasts from a patient with premature aging syndrome (HGPS) were used to model human skin and to determine the effect of calcitriol on senescence in these cells. Calcitrol, a synthetic version of Vitamin D3, can reverse some symptoms of progeria. To assess the effect of calcitrol on senescence NDF and HGPS fibroblasts were cultured and treated with 0.5 μM calcitriol for up to 10 days. Cells were then stained for SA-β-gal. FIG. 11A and FIG. 11B show representative images of SA-β-gal negative and positive cells respectively. […] This experiment was repeated at least three times using different passages, a representative similarly passaged experiment is shown. […] The horizontal line demarcates the 90th percentile in ATRX foci number, a stringent definition of the senescent state. The vertical line demarcates the 70th percentile of nuclear area. Cells in the upper right quadrant are senescent (ATRX^highNV^large). […]\nThe natural extracts were also tested on fibroblast cells as described in Example 4. NDF and HGPS fibroblasts were treated with the natural product extracts for 7 days and then assessed for ATRX foci number, cell size and cell number, as indicated in the experimental design in FIG. 19. […] The data shown is representative of at least two different experiments for each mixture analyzed at multiple doses and multiple times."}, "[2]": {"system": "LS8817^TetONFMDM2 cells", "experiment": "SA-β-gal positive cells in LS8817 TetON FLAG-MDM2 cells", "assay_type": "cell-based", "description": "The ability of tipifarnib to induce senescence was confirmed in the LS8817^TetONFMDM2 cells used in Example 2. LS8817^TetONFMDM2 cells were treated with either doxycycline alone for 8 days (DOX, black), doxycycline for three days followed by […] of 10 μg/ml doxycycline and 0.2 μM palbociclib (PD+DOX, Brown), or doxycycline for two days followed by three days of doxycycline and palbociclib followed by five days of doxycycline+palbociclib+0.1 μM tipifarnib (PD+DOX->tipi, green). ATRX foci and nuclear size were evaluated as describe previously. […] ATRX foci are shown in green, and DAPI staining in blue. […] The cells treated with 3 days of doxycycline and palbociclib followed by 5 days of tipifarnib had SA-β-gal in about 60% of cells compared to the cells treated with doxycycline and palbociclib for 8 days which had SA-β-gal in less than 10% of cells. Treatment with tipifarnib caused a greater than 6-fold increase in the number of senescent cells."}}, "data": [{"smiles": "C=C1/C(=C\\C=C2/CCC[C@]3(C)[C@@H]([C@H](C)CCCC(C)(C)O)CC[C@@H]23)C[C@@H](O)C[C@@H]1O", "note": "[calcitriol]", "values": [{"measurement": "accumulation of senescent cells (ATRX foci number, nuclear size distribution)", "setting": "[1]; 0.5 μM calcitriol up to 10 days", "result": "decreased the accumulation of senescent cells"}, {"measurement": "percentage of senescent cells (ATRX high, large nuclear area quadrant)", "setting": "[1]; HGPS cells, treated 7 days, about 10% without treatment", "result": "about 0%"}]}, {"smiles": "Cn1cncc1[C@@](N)(c1ccc(Cl)cc1)c1ccc2c(c1)c(-c1cccc(Cl)c1)cc(=O)n2C", "note": "[tipifarnib]", "values": [{"measurement": "cells positive for SA-β-gal", "setting": "[2]; 3 days doxycycline and palbociclib followed by 5 days tipifarnib", "result": "about 60%"}, {"measurement": "increase in the number of senescent cells", "setting": "[2]; tipifarnib added vs doxycycline and palbociclib 8 days", "result": "greater than 6 fold"}]}, {"smiles": "CC(=O)c1c(C)c2cnc(Nc3ccc(N4CCNCC4)cn3)nc2n(C2CCCC2)c1=O", "note": "[palbociclib]", "values": [{"measurement": "cells positive for SA-β-gal", "setting": "[2]; doxycycline and palbociclib for 8 days", "result": "less than 10%"}, {"measurement": "cells SA-β-gal positive", "setting": "[2]; palbociclib alone (without doxycycline)", "result": "about 80%"}]}]}
